Results taken from patent publication US20090149455A1, “Use of Triazolopyrimidines for Controlling Plant Diseases on Legumes” (Bayer CropScience AG, priority 2005, published 2009).

experiment: log p; type: physicochemical

Structure (SMILES)	log p
CC1CCN(c2c(-c3ccc(F)cc3Cl)c(Cl)nc3ncnn23)NC1 (stereo not shown) [Example 265]	3.22
CC1CNN(c2c(-c3ccc(F)cc3Cl)c(Cl)nc3ncnn23)CC1C (stereo not shown) [Example 266]	3.43
CC1CNN(c2c(-c3c(F)cc(F)cc3F)c(Cl)nc3ncnn23)CC1C (stereo not shown) [Example 270]	3.35
CC1CCN(c2c(-c3ccccc3Cl)c(Cl)nc3ncnn23)NC1 (stereo not shown) [Example 271]	3
CC1C=NN(c2c(-c3ccccc3Cl)c(Cl)nc3ncnn23)CC1 (stereo not shown) [Example 272]	2.79
CC1C=NN(c2c(-c3c(F)cccc3Cl)c(Cl)nc3ncnn23)CC1C (stereo not shown) [Example 275]	3.15
CC1CCN(c2c(-c3ccccc3C(F)(F)F)c(Cl)nc3ncnn23)CC1 [Example 279]	3.8

Next, values leading:

log p	Structure (SMILES)
3.01	CC1CCN(c2c(-c3c(F)cccc3Cl)c(Cl)nc3ncnn23)NC1 (stereo not shown) [Example 267]
2.87	Cc1cc(C)n(-c2c(-c3c(F)cccc3Cl)c(Cl)nc3ncnn23)n1 [Example 268]
2.94	Cc1cc(C)n(-c2c(-c3ccc(F)cc3Cl)c(Cl)nc3ncnn23)n1 [Example 269]
2.85	CC1C=NN(c2c(-c3c(F)cc(F)cc3F)c(Cl)nc3ncnn23)CC1 (stereo not shown) [Example 273]
3.05	CC1CCN(c2c(-c3c(F)cc(F)cc3F)c(Cl)nc3ncnn23)NC1 (stereo not shown) [Example 274]
3.14	CC1C=NN(c2c(-c3c(F)cc(F)cc3F)c(Cl)nc3ncnn23)CC1C (stereo not shown) [Example 276]
3.1	CC1C=NN(c2c(-c3ccccc3Cl)c(Cl)nc3ncnn23)CC1C (stereo not shown) [Example 277]
3.3	CC1CNN(c2c(-c3ccccc3Cl)c(Cl)nc3ncnn23)CC1C (stereo not shown) [Example 278]
3.37	CC1CCN(c2c(-c3c(F)cccc3Cl)c(C#N)nc3ncnn23)CC1 [Example 280]
